{
  "source": "patent US10385080B2",
  "about": "“STAT6 inhibitors” (Board of Regents, The University of Texas System, priority 2013, dated 2019)",
  "key": {"allergic airway disease": {"test_system": "allergic airway disease", "assay": "Allergic lung disease reversal model (A. niger spores, treatment of established disease)", "format": "in vivo, mice", "description": "FIG. 17A, Mice are treated intranasally with 400,000 Aspergillus niger conidia every other day. After two weeks A. niger conidia are administered with either DLPC or DLPC/PM-43I. Airway hyperresponsiveness is measured at week 2, 3, and 4. FIG. 17B, Airway hyperrepsonsiveness induced by acetylcholine is revered by treatment with PM-43I.\nIn separate experiments wild type C57BL/6 mice were challenged with the spores of A. niger for two weeks after which the inventors began to give PM-242H intranasally at 50 micrograms per dose at the time of continued fungal challenge for an additional two weeks (FIG. 13A).\n(§1) Mice were challenged intranasally with a clinical isolate of 4×10^5 A. niger conidia every two days for a total of 8 challenges and treated with 50 μg of the indicated β-agonist, liposome vehicle (DLPC) and/or PM-242H (5 or 50 μg) intranasally as indicated and the allergic airway disease phenotype was determined according to previously described methods (Porter, P. et al. 2009).\n(§2) Allergic airway disease was assessed as previously described (Porter, P. et al. 2009). Changes in respiratory system resistance (RRS) in response to intravenous acetylcholine challenge, bronchoalveolar lavage (BAL) fluid differential counts, and analysis of lung IL-4, IL-17A and IFN-γ producing cells by enzyme linked immunocell spot assay (ELISpot) were performed as previously described (Lee, S. H. et al. 2003; Polikepahad, S. et al. 2010).\nLungs were perfused of blood by cannulating the pulmonary artery and injecting ice cold PBS until lavage returning via the left atrium was clear. Lungs were then inflated via the trachea with 10% formalin at 25 cm water pressure and the tracheas were tied off prior to removal of the cardiopulmonary unit en bloc submerging in 10% formalin overnight. Fixed lungs were then divided into individual lobes that were then halved and embedded in paraffin. Lung sections were cut at 5 microns and stained with the periodic acid-Schiff (PAS) kit (395B; Sigma-Aldrich, St. Louis, Mo.)."}, "Th1, Th2, Th17 cells": {"test_system": "Th1, Th2, Th17 cells", "assay": "Th cell development: ovalbumin restimulation ELISpot of splenocytes from ovalbumin/alum immunized mice", "format": "in vivo", "description": "The ability of PM-242H to inhibit the development of major T helper effector subsets (Th1, Th2, Th17 cells) at the time of allergen exposure was tested. For these experiments, mice were immunized with chicken egg ovalbumin precipitated in alum over two weeks and then challenged intranasally with the spores of the fungus Aspergillus niger (AN) together with alum-free ovalbumin. The inventors prepared single cell suspensions of splenocytes from these same mice and stimulated the T cells in these preparations with ovalbumin to determine the precise number of antigen-specific Th1, Th2 and Th17 cells that developed. […] In summary, treatment of mice with PM-242H suppressed the development of Th2 and Th17, but not Th1 cells. These findings are entirely consistent with the known properties of STAT6, but in addition indicate that STAT6 may be involved with the production of Th17 cells.\n(§3) Mice were sensitized to ovalbumin precipitated in alum as described in FIG. 3 (Corry, D. B. et al. 1996). In brief, mice were vaccinated intraperitoneally weekly with ovalbumin/alum together with PM-242H (50 or 250 μg) or liposome vehicle (DLPC) for 2 consecutive weeks and allowed to rest for 1 week. Mice were then intranasally challenged with ovalbumin (1 mg/mL in PBS; A5503, Sigma-Aldrich) and 4×10^5A. niger conidia for 5 consecutive days after which the allergic airway disease phenotype was assessed. Randomization was not used to assign mice to specific treatment groups. Investigators were blind as to mouse genotype and treatment during data collection.\nSplenocytes from the indicated challenge groups of naïve and sensitized mice were assessed for antigen-specific recall cytokine responses by ELISpot. In brief, spleens were removed post mortem, de-aggregated by pressing through 40 μm nylon mesh and the red blood cells were removed from resulting cell suspension by hypotonic lysis. The splenocytes were then washed twice and cultured in flat-bottom wells of 96-well microtiter plates that were pre-coated with capture antibodies to IL-4, interferon gamma (IFN-γ) and IL-17A. Splenocytes were added in duplicate cultures of 0.5×10^6 cells/well that were then diluted serially two-fold to 0.015×10^6 cells/well. Cells were cultured in the presence of media or whole ovalbumin (1 mg/mL) overnight and plates were developed as previously described (Kheradmand, F. et al. 2002)."}, "STAT6 [1]": {"test_system": "STAT6", "assay": "STAT6 phosphorylation in vitro and in vivo (summary statement)", "from_the_text": "The synthesized PM-242H compound was advanced to in vivo studies. PM-242H was formulated as simple dilauroylphosphatidyl-choline liposomes and applied by intranasal administration. […] These findings with PM-242H in vivo and in vitro are entirely consistent with and explained by its ability to inhibit selectively STAT6.\n(§4) Cells or lungs were isolated and lysed in RIPA buffer (9806S; Cell Signaling, Danvers, Mass.), protein was quantified using BCA Protein Assay Reagent (23227; Thermo Fisher Scientific, Rockford, Ill.) and denatured in Laemmli sample buffer (161-0737; Bio-Rad, Hercules, Calif.) according to manufacturer's protocol. Proteins were separated on SDS-Page gels were hand-poured using a standard electrophoresis unit (Bio-Rad, Hecules, Calif.) and transferred to a membrane using iBlot Gel Transfer Device (IB 1001; Invitrogen, Grand Island, N.Y.). Membranes were blocked in 2% FBS PBST and probed for c-Src, p-c-Src, pErk1/2, Erk1/2, p STAT6, STAT6, pSTAT3, STAT3, pSTAT5, STAT5, Shp-1, and β-actin. Signal was detected with a ChemiDoc XRS+ system (BioRad; Hercules, Calif.)."}, "allergic lung disease": {"test_system": "allergic lung disease", "assay": "Allergic lung disease induction model (ovalbumin/alum immunization, ovalbumin and A. niger challenge)", "format": "in vivo, mice", "description": "The same model as described in part E was used to determine the effect of PH-242H on the induction of allergic lung disease. Mice that were immunized with ovalbumin and challenged intranasally with ovalbumin and A. niger spores developed AHR as determined by a shift to the left of the acetylcholine (Ach) dose response curve as compared to PBS challenged animals. Enzyme linked immunocell spot (ELISpot) assays were then performed on whole lung homogenates, assaying for IL-4, gamma interferon (IFN-γ) and IL-17A-secreting cells.\nas §3, §2"}, "Stat5": {"test_system": "Stat5", "assay": "Selectivity: Stat5 phosphorylation in EGF-stimulated MDA-MB-468 cells", "format": "cell-based", "conditions": "serum starved MDA-MB-468 cells, 2 hr", "description": "(§5) Compounds were screened at 5 μM for their ability to inhibit IL-4 stimulated phosphorylation of STAT6 in Beas-2B immortalized human airway cells. Cells were treated with prodrug for 2 hr and then stimulated with IL-4. After 30 min cells were lysed and pSTAT6 and total STAT6 were measured with western blots (FIG. 7). Without being bound by theory, the inhibition observed is consistent with compounds entering cells, being stripped of the POM groups, binding to the SH2 domain of STAT6, blocking binding to IL-4Rα and preventing phosphorylation of Tyr641. […] Compounds resulting in <10% residual phosphorylation were taken on to MTS cytotoxicity assays and dose response assays. (FIG. 8). The cyclic aromatic amides PM-63I, PM-80I, PM-81I, and PM-86I were very potent with IC50 values from 50-500 nM. […] With the exception of PM-43I, concentrations that inhibit STAT6 phosphorylation are 20-100 fold lower than those resulting in toxicity. STAT6 inhibitors were assayed for their ability to inhibit the phosphorylation of STAT 1, STAT 3, STAT 5, Akt, and FAK, all processes that depend on SH2 domain-phosphotyrosine interactions (Mandal, P. K. et al. 2011). Serum starved MDA-MB-468 breast cancer cells were treated with STAT6 inhibitors for 2 hr and then were stimulated with EGF (See FIGS. 9A and 9B)."}, "[2]": {"assay": "Toxicity: weights of mice during challenge with different doses", "format": "in vivo", "conditions": "highest dose of 50 micrograms", "description": "(§6) The issue of toxicity was addressed with the newer synthetic STAT6 peptidomimetic agents 86i and 43i in two ways. First, the inventors determined the effect of each inhibitor on asthma-related parameters in fungus-challenged mice. […] Second, the weights of mice were measured during challenge with the different doses of both STAT6 inhibitors."}, "[3]": {"test_system": "asthma-related parameters", "assay": "Dose effect on asthma-related parameters in fungus-challenged mice", "format": "in vivo", "conditions": "fungus-challenged mice", "description": "as §6, §1, §2"}, "STAT6 [4]": {"target": "T1, STAT6 (Homo sapiens, UniProt P42226)", "T1 sequence (P42226 1-847)": "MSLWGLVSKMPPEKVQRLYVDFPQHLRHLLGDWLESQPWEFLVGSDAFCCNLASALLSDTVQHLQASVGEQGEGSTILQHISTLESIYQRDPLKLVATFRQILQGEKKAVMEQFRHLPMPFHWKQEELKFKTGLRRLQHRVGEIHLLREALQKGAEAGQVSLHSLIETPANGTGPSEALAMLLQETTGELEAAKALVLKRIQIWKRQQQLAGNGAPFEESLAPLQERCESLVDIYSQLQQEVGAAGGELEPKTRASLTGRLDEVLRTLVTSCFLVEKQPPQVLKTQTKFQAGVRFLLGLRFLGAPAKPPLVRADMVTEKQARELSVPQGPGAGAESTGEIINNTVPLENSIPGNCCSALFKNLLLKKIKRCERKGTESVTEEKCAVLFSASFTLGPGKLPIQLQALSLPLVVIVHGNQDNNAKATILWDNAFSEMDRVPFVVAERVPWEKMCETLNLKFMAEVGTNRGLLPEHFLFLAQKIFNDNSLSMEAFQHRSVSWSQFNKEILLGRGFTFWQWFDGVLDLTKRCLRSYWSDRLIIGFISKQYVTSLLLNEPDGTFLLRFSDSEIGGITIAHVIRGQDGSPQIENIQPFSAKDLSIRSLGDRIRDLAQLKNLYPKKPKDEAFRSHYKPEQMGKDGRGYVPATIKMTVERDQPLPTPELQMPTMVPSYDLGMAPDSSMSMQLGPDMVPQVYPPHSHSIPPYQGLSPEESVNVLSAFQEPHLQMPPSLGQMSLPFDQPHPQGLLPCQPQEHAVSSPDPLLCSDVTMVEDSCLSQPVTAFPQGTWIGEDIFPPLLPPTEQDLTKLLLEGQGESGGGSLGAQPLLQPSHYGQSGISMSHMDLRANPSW", "assay": "Inhibition of IL-4 (and IL-13) stimulated phosphorylation of STAT6 in Beas-2B cells, western blot", "format": "cell-based", "parameters": "endogenous in cells; host or cells: Beas-2B immortalized human airway cells", "conditions": "dose response", "description": "Compound PM-241H inhibited the phosphorylation of Tyr641 of STAT6 in Beas-2B cells stimulated with IL-4 and IL-13.\nas §5, §4"}, "[5]": {"conditions": "intranasal 50 micrograms per dose during established disease"}, "[6]": {"conditions": "splenocytes restimulated with ovalbumin"}, "[7]": {"conditions": "ELISpot on whole lung homogenates"}, "[8]": {"conditions": "A. niger conidia, DLPC/PM-43I after two weeks"}},
  "note": "Entries after “also recorded” stand apart in the source; their conditions may differ.",
  "data": [
    {"smiles": "CC(C)(C)C(=O)OCOP(=O)(OCOC(=O)C(C)(C)C)C(F)(F)c1ccc(/C=C/C(=O)NC(C(=O)N2CCCC2C(=O)N(c2ccccc2)c2ccc(-c3ccccc3)cc2)C(C)(C)C)cc1", "note": "(stereo not shown) [PM-242H]", "values": [
      {"measurement": "airway hyperresponsiveness", "setting": "allergic airway disease; C57BL/6 mice, intranasal 50 micrograms per dose during established disease", "result": "abrogation of airway hyperresponsiveness; also recorded: promotes recovery from airway hyperresponsiveness"},
      {"measurement": "mucus production", "setting": "allergic airway disease; FIGS. 13A-F legend", "result": "inhibition of mucus production"},
      {"measurement": "goblet cell metaplasia (periodic acid-Schiff staining)", "setting": "allergic airway disease; [5]", "result": "reduction in goblet cell metaplasia"},
      {"measurement": "lung and airway inflammation", "setting": "allergic airway disease; [5]", "result": "did not, however, attenuate"},
      {"measurement": "number of airway eosinophils", "setting": "allergic airway disease; [5]", "result": "increased"},
      {"measurement": "number of lung IL-17A-secreting cells", "setting": "allergic airway disease; [5]", "result": "increased"},
      {"measurement": "effect on Th cells", "setting": "Th1, Th2, Th17 cells; FIGS. 11A-H legend", "result": "inhibits Th cells"},
      {"measurement": "Th1 (IFN-γ)-secreting cells", "setting": "Th1, Th2, Th17 cells; [6]", "result": "unaffected"},
      {"measurement": "development of Th2 (IL-4-producing) T cells", "setting": "Th1, Th2, Th17 cells; [6]", "result": "failed to develop"},
      {"measurement": "development of Th17 (IL-17A-producing) T cells", "setting": "Th1, Th2, Th17 cells; [6]", "result": "failed to develop"},
      {"measurement": "STAT6 phosphorylation both in vitro and in vivo", "setting": "STAT6 [1]", "result": "inhibit"},
      {"measurement": "IL-17A-secreting cells in lungs", "setting": "allergic lung disease; [7]", "result": "significantly suppressed"},
      {"measurement": "ratio between IL-4 and IFN-γ-secreting cells in lungs", "setting": "allergic lung disease; [7]", "result": "significantly suppressed"},
      {"measurement": "development of allergic lung disease", "setting": "allergic lung disease; FIG. 12 legend", "result": "blocks the development of allergic lung disease"}
    ]},
    {"smiles": "CC(=CC(=O)NC1CCCCN(CC(=O)N(C)c2ccccc2)C1=O)c1ccc(C(F)(F)P(=O)(OCOC(=O)C(C)(C)C)OCOC(=O)C(C)(C)C)cc1", "note": "(stereo not shown) [PM-43I]", "values": [
      {"measurement": "cross reactivity with Stat5", "setting": "Stat5", "result": "significant cross reactivity"},
      {"measurement": "established allergic airway disease", "setting": "allergic airway disease; A. niger conidia every other day, DLPC/PM-43I after two weeks", "result": "reverses established allergic airway disease"},
      {"measurement": "immune cell recruitment", "setting": "allergic airway disease; [8]", "result": "does not significantly affect"},
      {"measurement": "lung immune response to A. niger infection", "setting": "allergic airway disease; [8]", "result": "does in inhibit"},
      {"measurement": "airway hyperresponsiveness induced by acetylcholine", "setting": "allergic airway disease; A. niger conidia, DLPC/PM-43I after two weeks, weeks 2, 3, 4", "result": "revered"},
      {"measurement": "weight gain", "setting": "[2]", "result": "reduction in weight gain"},
      {"measurement": "maximally effective dose", "setting": "[3]", "result": 0.5, "unit": "micrograms"},
      {"measurement": "IC50", "setting": "STAT6 [4]", "result": "1 to 2.5", "unit": "µM"}
    ]}
  ]
}
